Assay [1] addresses T1, human GPCR sphingosine 1-phosphate receptor 2 (Homo sapiens, UniProt O95136).
T1 construct: host or cells: CHO
Kind of assay: S1PR2 antagonist Ca2+ flux assay. In kind it is cell-based. To be noted: antagonist mode, CHO-S1PR2 cells, S1P at EC80, Ca2+ fluorescence; read-out: S1P2 EC50 (nM), S1P2 antagonist EC50. In a few lines:
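Antagonist mode: 15 min after compound addition, S1P (EC80) stimulates Fluo8-loaded, 1 h-starved CHO-S1PR2 cells, Ca2+ read over 3 min; a prior 3-min read checks compound agonism. EC50 from peak/baseline fluorescence ratio, normalised versus vehicle and S1P EC50 (antagonist) or EC100 (agonist).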
(In general: Calcium assays in cells follow changes in intracellular calcium, usually with a dye or a luminescent sensor.)

Assay [2] addresses T2, S1PR2 (Homo sapiens, UniProt O95136).
T2 construct: expressed in transfected cells
Briefly: S1PR2 binding assay (competition with radioactively labeled S1P, SpA). To be noted: membranes from stable cell line over expressing S1PR2, SpA beads; read-out: S1P2 EC50 (nM), S1PR2 binding EC50. In a few lines:
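Scintillation proximity read-out after 2 h room-temperature incubation of compound, [3H]S1P and S1PR2-overexpressing cell membranes on WGA-coated beads. Buffer: 20 mM Tris pH 7.5, 100 mM NaCl, 10 mM MgCl2, 1 mM Na3VO4, 0.4% fatty-acid-free BSA; plates counted immediately after centrifugation.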

Assay [3] relates to HFL-1 cells. Briefly: IL-8 production assay (S1P induced IL-8). In kind it is cell-based. Conditions: Homo sapiens, HFL1; S1P (1 μM) induced IL-8 in HFL-1 cells, starvation medium without HSA; read-out: IL8 EC50. As to the method:
This assay is designed to test inhibitory activity of compounds on S1P induced IL-8 on HFL-1 cells, ahuman fetal lung fibroblast cell line.
Human Fetal Lung cells (HFL-1) are seeded in 96 well plates in growth medium (F12K+10% heat inactivated FBS+l1% Pen/strep). After overnight incubation at 37° C., […] cells are refreshed with starvation medium without HSA (F12K+1% FBS+1% Pen/strep). On day three, compounds are added (10 point serial dilution, 30 μM highest concentration, 1/3 dilution, 0.3% DMSO final) and plates are incubated for one h at 37° C., 5% CO2. Subsequently S1P at 1 μM final concentration is added and plates are incubated for 16 to24 h at 37° C., […] after which the supermatant was collected. IL-8 levels in the supernatant are determined with the IL-8 ELISA of R&D systems.

Assay [4] has as its system HFL-1 cells. Briefly: IL8 assay in the presence of Human Serum Albumin. To be noted: HFL1, read-out: HSA IL8 EC50.
Method: To evaluate the influence of plasma protein binding of S1P as well as compound, the S1P induced IL-8 levelswereevaluatedin presence of Human Serum Albumin (HSA, equivalent to 40% human serum).
Human Fetal Lung cells (HFL-1) are seeded in 96 well plates in growth medium (F12K+10% heat inactivated FBS+1% Pen/strep). […] On day three, compounds are added (10 point serial dilution, 30 μM highest concentration, 1/3 dilution, 0.3% DMSO final) and plates are incubated for 1 h at 37° C., 5% CO2. Subsequently S1P at 5 μM final concentration is added and plates are incubated for 16 to 24 h at 37° C., 5% COafter which the supernatant was collected. IL-8 levels in the supernatant are determined with the IL-8 ELISA of R&D systems.

T1 sequence (O95136 whole entry): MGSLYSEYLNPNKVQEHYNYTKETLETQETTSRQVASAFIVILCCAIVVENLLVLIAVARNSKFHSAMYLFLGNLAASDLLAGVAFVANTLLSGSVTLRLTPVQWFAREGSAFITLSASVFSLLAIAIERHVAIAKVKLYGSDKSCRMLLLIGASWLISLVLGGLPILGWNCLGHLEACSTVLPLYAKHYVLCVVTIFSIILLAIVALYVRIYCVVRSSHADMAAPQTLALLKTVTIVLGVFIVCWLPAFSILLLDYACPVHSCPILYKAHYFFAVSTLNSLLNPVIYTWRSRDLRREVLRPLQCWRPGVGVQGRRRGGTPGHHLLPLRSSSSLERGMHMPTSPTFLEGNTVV
T2 sequence (O95136 whole entry): as above

Usually EC50 stands for the concentration needed to bring the measured effect to its halfway point. As to `O=C(O)Cc1nn(Cc2cn3cc(OCC4CC4)c(Cl)cc3n2)c2c(c1=O)CCCC2` [Compound 105, 2-[1-[[7-chloro-6-(cyclopropylmethoxy)imidazo[1,2-a]pyridin-2-yl]methyl]-4-oxo-5,6,7,8-tetrahydrocinnolin-3-yl]acetic acid], the EC50 stood at 3.02 nM in assay [1], 35.3 nM in assay [2], 10.6 nM in assay [3] and 110 nM in assay [4].
Taken in the same sequence, the figures for `O=C(O)Cc1nn(Cc2nc3cc(OCC4CC4)c(Br)cc3[nH]2)c2ccccc2c1=O` [Compound 109, 2-[1-[[6-bromo-5-(cyclopropylmethoxy)-1H-benzimidazol-2-yl]methyl]-4-oxo-cinnolin-3-yl]acetic acid] were 2.32 nM, 3.84 nM, 0.137 nM and 2.03 nM.
Taken in the same sequence, the figures for `CCOc1cc2[nH]c(Cc3nn(CC(=O)O)c(=O)c4c3CCCC4)nc2cc1Cl` [Compound 121, 2-[4-[(5-chloro-6-ethoxy-1H-benzimidazol-2-yl)methyl]-1-oxo-5,6,7,8-tetrahydrophthalazin-2-yl]acetic acid] were 6.23 nM, 84.8 nM, 6.35 nM and 50.8 nM.
Taken in the same sequence, the figures for `CC1(COc2cc3nc(Cc4nn(CC(=O)O)c(=O)c5ccccc45)[nH]c3cc2Cl)CC1` [Compound 131, 2-[4-[[5-chloro-6-[(1-methylcyclopropyl)methoxy]-1H-benzimidazol-2-yl]methyl]-1-oxo-phthalazin-2-yl]acetic acid] were 13.2 nM, 197 nM, 12 nM and 267 nM.
On to `CC(C)(C)COc1cc2nc(Cc3nn(CC(=O)O)c(=O)c4ccccc34)[nH]c2cc1Cl` [Compound 132], for which the EC50 is 26.4 nM in assay [1], 649 nM in assay [2], 97.3 nM in assay [3] and 800 nM in assay [4].
On to `N#CC1(COc2cc3nc(Cc4nn(CC(=O)O)c(=O)c5ccccc45)[nH]c3cc2Cl)CC1` [Compound 133, 2-[4-[[5-chloro-6-[(1-cyanocyclopropyl)methoxy]-1H-benzimidazol-2-yl]methyl]-1-oxo-phthalazin-2-yl]acetic acid], for which the concentration for a half-maximal effect (EC50) came to 14.8 nM in assay [1], 263 nM in assay [2], 33.3 nM in assay [3] and 267 nM in assay [4].
Taken in the same sequence, the figures for `N#Cc1cc2nc(Cc3nn(CC(=O)O)c(=O)c4ccccc34)[nH]c2cc1OCC(F)F` [Compound 139] were 119 nM, 159 nM, 5.39 nM and 28 nM.
Turning to `O=C(Cn1nc(Cn2cc3cc(OCC4CC4)c(Cl)cc3n2)c2ccccc2c1=O)N[C@H]1CCC[C@@H]1O` [Compound 143, 2-[4-[[6-chloro-5-(cyclopropylmethoxy)indazol-2-yl]methyl]-1-oxo-phthalazin-2-yl]-N-[(1S,2S)-2-hydroxycyclopentyl]acetamide], the 50% effective concentration (EC50) in assay [1] was 13.8 nM; in assay [2], 15.2 nM; in assay [3] it was 21.6 nM; in assay [4], 179 nM.
In the case of `O=C(Cn1nc(Cc2nc3cc(Cl)c(OCC(F)F)cc3[nH]2)c2ccccc2c1=O)N1CCOCC1` [Compound 151, 4-[[5-chloro-6-(2,2-difluoroethoxy)-1H-benzimidazol-2-yl]methyl]-2-(2-morpholino-2-oxo-ethyl)phthalazin-1-one], the 50% effective concentration (EC50) is 13.6 nM in assay [1], 34.7 nM in assay [2], 7.11 nM in assay [3] and 43.7 nM in assay [4].
In the case of `CC(C(=O)N1CCOCC1)n1nc(Cc2nc3cc(OCC4CC4)c(Cl)cc3[nH]2)c2ccccc2c1=O` (centres unmarked) [Compound 155, 4-(6-Chloro-5-cyclopropylmethoxy-1H-benzoimidazol-2-ylmethyl)-2-(1-methyl-2-morpholin-4-yl-2-oxo-ethyl)-2H-phthalazin-1-one], the EC50 was 14.7 nM in assay [1], 229 nM in assay [2], 49.5 nM in assay [3] and 230 nM in assay [4].
The corresponding values for `CCOc1cc2nc(Cc3nn(CC(=O)N4CCOCC4)c(=O)c4ccccc34)[nH]c2cc1F` [Compound 157, 4-[(5-ethoxy-6-fluoro-1H-benzimidazol-2-yl)methyl]-2-(2-morpholino-2-oxo-ethyl)phthalazin-1-one] are 106 nM, 618 nM, 780 nM and 1220 nM.
The corresponding values for `N#Cc1cc2[nH]c(Cc3nn(CC(=O)N4CCOCC4)c(=O)c4ccccc34)nc2cc1OCC1CC1` [Compound 158, 6-(cyclopropylmethoxy)-2-[[3-(2-morpholino-2-oxo-ethyl)-4-oxo-phthalazin-1-yl]methyl]-3H-benzimidazole-5-carbonitrile] are 3.98 nM, 18.6 nM, 1.5 nM and 11 nM.
With `C[C@@H]1CN(C(=O)Cn2nc(Cc3nc4cc(Cl)c(OCC5(C#N)CC5)cc4[nH]3)c3ccccc3c2=O)C[C@H](C)O1` [Compound 162, 1-[[6-chloro-2-[[3-[2-[(2S,6R)-2,6-dimethylmorpholin-4-yl]-2-oxo-ethyl]-4-oxo-phthalazin-1-yl]methyl]-3H-benzimidazol-5-yl]oxymethyl]cyclopropanecarbonitrile], the concentration for a half-maximal effect (EC50) is 9.07 nM in assay [1], 75.1 nM in assay [2], 4.44 nM in assay [3] and 8.27 nM in assay [4].
Taken in the same sequence, the figures for `CC1(COc2cc3[nH]c(Cc4nn(CC(=O)N5CCOCC5)c(=O)c5ccccc45)nc3cc2Cl)CC1` [Compound 163, 4-[[5-chloro-6-[(1-methylcyclopropyl)methoxy]-1H-benzimidazol-2-yl]methyl]-2-(2-morpholino-2-oxo-ethyl)phthalazin-1-one] were 11.6 nM, 109 nM, 12.6 nM and 107 nM.
The corresponding values for `O=C(Cn1nc(Cc2nc3cc(Cl)c(OCC4CC4)cc3[nH]2)c2ccccc2c1=O)N1CCOCC1` [Compound 166, 4-[[5-chloro-6-(cyclopropylmethoxy)-1H-benzimidazol-2-yl]methyl]-2-(2-morpholino-2-oxo-ethyl)phthalazin-1-one] are 9.34 nM, 22.4 nM, 1.41 nM and 3.3 nM.
Taken in the same sequence, the figures for `CN(CC1CCCO1)C(=O)Cn1nc(Cc2nc3cc(OCC(F)F)c(C#N)cc3[nH]2)c2ccccc2c1=O` (centres unmarked) [Compound 180, 2-[4-[[6-cyano-5-(2,2-difluoroethoxy)-1H-benzimidazol-2-yl)methyl]-1-oxo-phthalazin-2-yl]-N-methyl-N-(THF-2-ylmethyl)acetamide] were 21.1 nM, 93.9 nM, 28.3 nM and 67 nM.
Consider `N#CCCN(C(=O)Cn1nc(Cc2nc3cc(OCC(F)F)c(C#N)cc3[nH]2)c2ccccc2c1=O)C1CC1` [Compound 181, 2-[4-[[6-cyano-5-(2,2-difluoroethoxy)-1H-benzimidazol-2-yl]methyl]-1-oxo-phthalazin-2-yl]-N-(2-cyanoethyl)-N-cyclopropyl-acetamide], for which the EC50 amounted to 95.8 nM in assay [1], 297 nM in assay [2], 544 nM in assay [3] and 906 nM in assay [4].

Source of the values: patent publication US20210315893A1 (Galapagos NV, priority 2017, published 2021).
